Counter-ions that a name gives are not always drawn.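 Tested at 5 concentrations; 48 h exposure; 96-well plates; endpoints linearly interpolated, else capped at highest concentration. Abbreviation: GI50, concentration required for 50% inhibition of growth.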 The source made the active and inactive calls. No stated cut-off is given here; in the data, active = GI50 up to about 1.1 µM and inactive = higher.
Columns and labels:
Test in all cases: NCI anticancer screen, dose series, 48 h
[1] = tested on: MDA-MB-435
[2] = tested on: NCI-H226
[3] = tested on: MCF7
[4] = tested on: EKVX
[5] = tested on: OVCAR-4
[6] = tested on: HOP-62
[7] = tested on: RPMI-8226
[8] = tested on: HCC 2998
[9] = tested on: A498
[10] = tested on: NCI-H23
[11] = tested on: HT-29
[12] = tested on: UACC-62
[13] = tested on: 786-0
[14] = tested on: NCI-H522
[15] = tested on: LOX IMVI
[16] = tested on: UACC-257
[17] = tested on: SNB-19
[18] = tested on: SF-295
[19] = tested on: SK-MEL-28
[20] = tested on: SNB-75

Measured: GI50

CCOC(=O)c1c(OCC)[nH]c(=O)c(C(c2ccc(F)cc2)c2c(O)c(C(=O)OCC)c(OCC)[nH]c2=O)c1O
inactive: [1] 17.6 µM | [2] 9.82 µM | [3] 20.4 µM | [4] 7.06 µM | [5] 14.6 µM | [6] 13 µM | [7] 16.1 µM | [8] 18.1 µM | [9] 11.4 µM | [10] 19.5 µM | [11] 16.1 µM | [12] 15.6 µM | [13] 16.4 µM | [14] 18.6 µM | [15] 16.6 µM | [16] 14.8 µM | [17] 17.1 µM | [18] 17.7 µM | [19] 11.9 µM

CCCCCCCC(CC(=O)NC(CO)C(=O)NC(CO)CC(C)C)OC(=O)CC(CCCCCCC)OC(=O)CC(CCCCCCC)OC1OC(C)C(O)C(OC2OC(C)C(O)C(OC(C)=O)C2O)C1O (stereo unspecified)
inactive: [1] 11 µM | [2] 17.4 µM | [20] 5.56 µM | [3] 11.9 µM | [4] 15.3 µM | [5] 12.8 µM | [6] 12.2 µM | [8] 11.2 µM | [9] 13.2 µM | [10] 14.2 µM | [11] 7.8 µM | [12] 12.9 µM | [13] 13.4 µM | [14] 15 µM | [16] 5.77 µM | [17] 6.43 µM | [18] 15.8 µM | [19] 12.2 µM

O=C(N[C@@H](c1ccccc1)[C@@H](O)C(=O)OCc1ccc([N+](=O)[O-])cc1)c1ccccc1
inactive: [1] > 100 µM | [2] > 100 µM | [20] 44.1 µM | [3] 84.5 µM | [4] > 100 µM | [5] > 100 µM | [6] > 100 µM | [8] > 100 µM | [9] > 100 µM | [10] > 100 µM | [11] > 100 µM | [12] > 100 µM | [13] > 100 µM | [14] > 100 µM | [15] > 100 µM | [16] > 100 µM | [17] > 100 µM | [18] > 10 µM

O=C(O)CC(NC(=O)/C(=C/c1ccccc1O)NC(=O)c1ccccc1)C(=O)O (stereo unspecified)
inactive: [1] 85.9 µM | [2] > 100 µM | [20] 88.1 µM | [3] 34 µM | [4] 83.9 µM | [5] > 100 µM | [6] > 100 µM | [7] 82.6 µM | [8] > 100 µM | [9] 50.5 µM | [10] > 100 µM | [11] 80.7 µM | [12] 42.5 µM | [13] > 100 µM | [14] 65.5 µM | [15] > 100 µM | [16] > 100 µM | [18] > 100 µM | [19] > 100 µM

N#CC1=C(S)N(C2OC(CO)C(O)C(O)C2O)C(c2ccccc2)=CC1c1ccco1 (stereo unspecified)
inactive: [1] > 100 µM | [2] > 100 µM | [20] 16.6 µM | [3] 62.2 µM | [5] > 100 µM | [6] 44.6 µM | [7] 23.2 µM | [8] 28.4 µM | [9] 71.6 µM | [10] 59 µM | [11] > 100 µM | [12] 16.3 µM | [13] 38 µM | [14] 35.7 µM | [15] 23.2 µM | [16] 97.1 µM | [17] 69.5 µM | [18] 24.6 µM | [19] 91.6 µM

Cn1c2ccccc2c2c(=S)c3ccccc3ccc21
inactive: [1] > 100 µM | [2] 50.5 µM | [20] 24.6 µM | [3] 56.8 µM | [4] 85.9 µM | [5] 44.6 µM | [6] 79.6 µM | [8] > 100 µM | [9] > 100 µM | [10] > 100 µM | [11] 63.4 µM | [12] > 100 µM | [13] > 100 µM | [14] 36.8 µM | [15] 62.1 µM | [16] > 100 µM | [17] > 100 µM | [18] 76 µM | [19] > 100 µM

COc1cc(/C=C/C2=NN(c3cccc(S(=O)(=O)O)c3)C3(C2)SCC(=O)N3c2nc3ccccc3s2)cc(OC)c1OC (stereo unspecified)
inactive: [1] 23 µM | [2] 44.8 µM | [20] 63.5 µM | [3] 36.9 µM | [4] 68.1 µM | [5] 78.7 µM | [7] 21.3 µM | [8] > 100 µM | [9] 39.9 µM | [10] 69.3 µM | [11] 90.8 µM | [12] 35.1 µM | [13] 18.4 µM | [14] 18 µM | [15] 20.4 µM | [16] 95.7 µM | [17] 31.9 µM | [19] > 100 µM

CCOC(=O)Nn1cnnc1Cc1ccccc1
inactive: [1] > 100 µM | [2] > 100 µM | [3] > 100 µM | [4] > 100 µM | [5] > 100 µM | [6] > 100 µM | [7] > 100 µM | [8] > 100 µM | [9] > 100 µM | [10] > 100 µM | [11] > 100 µM | [12] > 100 µM | [13] > 100 µM | [14] > 100 µM | [15] > 100 µM | [16] > 100 µM | [17] > 100 µM | [18] > 100 µM

CC(=O)OCC1OC(n2c3c(cc(C#N)c2=O)CCCCCC3)C(OC(C)=O)C(OC(C)=O)C1OC(C)=O (stereo unspecified)
inactive: [1] > 100 µM | [2] > 100 µM | [20] 18.4 µM | [3] > 100 µM | [5] > 100 µM | [6] > 100 µM | [7] > 100 µM | [8] > 100 µM | [9] > 100 µM | [10] > 100 µM | [11] > 100 µM | [12] > 100 µM | [13] > 100 µM | [14] > 100 µM | [15] > 100 µM | [16] > 100 µM | [17] > 100 µM | [18] > 100 µM | [19] > 100 µM

C=C(C)CCC1C=[N+]([O-])OC(C)(C)C1(C)C (stereo unspecified)
inactive: [1] > 100 µM | [2] > 100 µM | [20] > 100 µM | [3] 73.5 µM | [4] > 100 µM | [6] > 100 µM | [7] > 100 µM | [8] > 100 µM | [9] > 100 µM | [11] > 100 µM | [12] 79.1 µM | [13] > 100 µM | [14] > 100 µM | [15] 80 µM | [16] > 100 µM | [18] > 100 µM

C=C1CN2CC(=C)CN(C1)CS(=O)(=O)N1CC(=C)CN(CC(=C)C1)S(=O)(=O)N1CC(=C)CN(CC(=C)C1)S(=O)(=O)C2
inactive: [1] 43.9 µM | [2] 27.7 µM | [3] 50.1 µM | [4] 39.1 µM | [5] 34.3 µM | [6] 20.6 µM | [7] 39.4 µM | [8] 17.7 µM | [9] 46.5 µM | [10] 78.7 µM | [11] > 100 µM | [12] 93.3 µM | [13] 18.7 µM | [14] 32.4 µM | [15] > 100 µM | [16] 23.6 µM | [17] 40.7 µM | [18] 31.9 µM | [19] 20.3 µM

CC(=O)N1N=C(c2ccc3ccccc3c2O)CC1C(=O)c1ccco1 (stereo unspecified)
inactive: [1] 14.7 µM | [2] 33.7 µM | [20] 14.3 µM | [3] 21.4 µM | [5] 17.5 µM | [6] 30.6 µM | [7] 17.2 µM | [8] 16.3 µM | [9] 29.7 µM | [10] 27.9 µM | [11] 22.8 µM | [12] 17 µM | [13] 45 µM | [14] 17.9 µM | [16] 32.1 µM | [18] 24 µM | [19] 37.8 µM

Cc1ccc(CNc2ccc(Br)cc2)cc1
inactive: [1] 22.8 µM | [2] 60 µM | [20] 37.3 µM | [3] 18.7 µM | [4] 25.6 µM | [6] 83.2 µM | [7] 3.44 µM | [8] 20.6 µM | [9] 29.3 µM | [10] 50.2 µM | [11] 28.2 µM | [12] 4.41 µM | [13] 48.3 µM | [14] 17.7 µM | [15] 2.01 µM | [16] 24.9 µM | [17] > 100 µM | [18] 47.8 µM | [19] 87.5 µM

O=c1[nH]nc(Cc2ccccc2)n1/N=C/c1ccccc1O
inactive: [1] > 100 µM | [2] > 100 µM | [3] > 100 µM | [4] > 100 µM | [5] > 100 µM | [6] 25.9 µM | [7] > 100 µM | [8] > 100 µM | [9] > 100 µM | [10] > 100 µM | [11] > 100 µM | [12] > 100 µM | [13] 41.5 µM | [14] > 100 µM | [15] > 100 µM | [16] > 100 µM | [17] 79.8 µM | [18] 57.7 µM | [19] > 100 µM

N[C@@H](Cc1ccc(N(CCCl)CCCl)cc1)C(=O)O [MELPHALAN HYDROCHLORIDE]
inactive: [1] 41.9 µM | [2] 49.9 µM | [20] 34.7 µM | [3] 11.1 µM | [5] 40 µM | [6] 15.4 µM | [7] 44 µM | [8] 43.3 µM | [9] 99.1 µM | [10] 23 µM | [11] 75.3 µM | [12] 11.2 µM | [13] 17.4 µM | [14] 25.2 µM | [15] 20.3 µM | [16] 42.5 µM | [17] 51.6 µM | [18] 20 µM | [19] 57.8 µM

From ChEMBL document CHEMBL1201862, “PubChem BioAssay data set” (2004)
